# Test results as given in patent US20240181093A1 (ADENOBIO N.V, priority 2012, published 2024).
# Where “and” joins values, the source holds several entries; their conditions need not be identical. Identical values can stand only once. Marks after values point to notes of the source that are not given here.
# How the values were obtained:
# coronary hyperaemia = conditions: cited from earlier work
# patients = conditions: cited from earlier work
# [1] = tested on: Left anterior descending coronary artery (LAD); test: Transthoracic doppler echocardiography (TTDE) flow velocity measurements at rest and under pharmacologic stress; format: in vivo, human; conditions: for Average Optimal Effect Duration: combined with adenosine bolus
# From the text: The value of absolute coronary blood flow (CBF) may be substituted by the value of CBF velocity (peak and mean velocities). […] Given that blood flow=velocity flow×cross section, if cross section is constant, velocity variations reflect blood flow variations.
# TTDE is a non invasive approach conducted under the same conditions as for thallium or technetium scintigraphy (intravenous injection) and another way to study Coronary Flow Reserve (CFR).
# [2] = bolus independently of the patient's weight
# [3] = Table 1: same coronary patient, 5 studies, second data of cell, adenosine 140 μg/kg/min 2 minute infusion, combination 30 second IV bolus
structure (smiles),measurement,setting,value
Nc1nc(N/N=C/C2CCCCC2)nc2c1ncn2[C@@H]1O[C@H](CO)[C@@H](O)[C@H]1O [binodenoson],duration of action,coronary hyperaemia; in vivo,10 ± 6 min
CNC(=O)c1cnn(-c2nc(N)c3ncn([C@@H]4O[C@H](CO)[C@@H](O)[C@H]4O)c3n2)c1 [regadenoson],side effects as compared to the reference drug Adenoscan (adenosine),patients; in vivo,"increase in dyspnea, headache and gastrointestinal disorders"
same,efficacy and tolerance at 500 μg,coronary hyperaemia; [2],same efficacy as 400 μg but tolerance is worst
same,efficacy threshold dose in many but not all patients,coronary hyperaemia; [2],300 µg
same,dose efficient in all patients,"coronary hyperaemia; bolus independently of the patient's weight, marketed dose",400 µg
same,time after which coronary hyperaemia is induced,coronary hyperaemia; in vivo,30 s
"Nc1ncnc2c1ncn2[C@@H]1O[C@H](CO)[C@@H](O)[C@H]1O [Adenosine, adenosine]",DOE = Duration of optimal effect,[1]; Table 1: same coronary patient,60 to 90 s
same,RBL = Return to base line,[1]; Table 1: same coronary patient,40 to 50 s
same,TTP = Time to peak,[1]; Table 1: same coronary patient,40 to 50 s
same,"MV = Mean Velocity, under stress conditions",[1]; [3],78 cm/s and 80 cm/s and 82 cm/s and 75 cm/s and 74 cm/s
same,"PV = Peak Velocity, under stress conditions",[1]; [3],108 cm/sec and 96 cm/sec and 98 cm/sec and 105 cm/sec
same,CR (based on MV),"[1]; Table 2: three different coronary patients, one line per patient, listed as St. Adenosine",2.12 and 2.36 and 2.88
same,"MV (mean velocity), under stress conditions","[1]; Table 2: three different coronary patients, one line per patient, second data of cell, St. adenosine 140 μg/kg/min infusion about 2 minutes, combination IV 30 second bolus",50 cm/s and 33 cm/s and 75 cm/s
same,adverse reaction: flushing,"patients; adenosine infusion, most frequently reported",44%
same,"Other side effects, incidence",patients; adenosine infusion,below 10%
same,adverse reaction: chest pain or chest discomfort,patients; adenosine infusion,40%
same,adverse reaction: dyspnoea,patients; adenosine infusion,28%
same,adverse reaction: gastrointestinal discomfort,patients; adenosine infusion,13%
same,adverse reaction: headache,patients; adenosine infusion,18%
same,adverse reaction: throat or neck or jaw discomfort,patients; adenosine infusion,15%
same,"time to near-maximal vasodilatation, on average",coronary hyperaemia; infusion,60 s
"OCCN(CCO)c1nc(N2CCCCC2)c2nc(N(CCO)CCO)nc(N3CCCCC3)c2n1 [Dipyridamole, dipyridamole]",Average Optimal Effect Duration,"[1]; Dipyridamole dose 9 mg, regardless of the dose of adenosine",30 to 40 s
same,Average Optimal Effect Duration,"[1]; Dipyridamole dose 10 mg, regardless of the dose of adenosine",40 to 50 s
same,Average Optimal Effect Duration,"[1]; Dipyridamole dose 12 mg, regardless of the dose of adenosine",40 to 90 s
same,Average Optimal Effect Duration,"[1]; Dipyridamole dose 14 mg, prolongs side effects when they occur",60-100** sec
same,coronary effect and side effect,[1]; alone as a 12 mg or 14 mg bolus,no coronary effect and no side effect
same,coronary effect or symptom,[1]; injected as a bolus alone at the dose of 12 mg (n=5 patients),does not induce any significant coronary effect or symptom
same,duration of peak of activity,coronary hyperaemia; in vivo,20 to 30 min
